Results from patent publication US6403618B1, “Agent and method for controlling angiogenesis” (Novactyl, Inc., priority 2000, dated 2002).

Columns and labels:
recurrent plantar wart = experiment: Treatment of virus-induced plantar ulcer; type: in vivo, human
Procedure: A patient with recurrent plantar wart of about 2 cm in diameter was treated with topical picolinic acid. The patient, a pathologist who had difficulty walking because of the pain caused by the ulcer, had experimented with numerous medications for more than three months without any significant results prior to treatment with the picolinic acid. It is relevant to note that many plantar ulcers are transformed into malignant tumors.
The patient was treated with a solution of 10% picolinic acid in deionized water for one week. […] They then were treated with 10% picolinic acid in Aquaphor. The ointment was placed on the ulcer and on a patch. The patch was replaced every 24 hours.

iron in the cells = settings: cited from earlier work
KB cells = experiment: Effects of picolinic acid on growth (total cell protein); type: cell-based, human; settings: 3 mM
Procedure: (§1) Cells were plated at 1.5×10^5 cells/60-mm dish; 48 hours later, the medium was removed, and new media with or without 3 mM picolinic acid was added. Total cell protein was determined at the indicated times; each point is the average of triplicate measurements from 2 cultures.

[1] = system: Microbial and fungal growth; experiment: Preservative use in foods and on fresh fruits
Text: (§2) The chelating agents of the present invention can be used as preservatives in perishable items such as foods and pharmaceuticals and to prevent fungal growth on the surface of fresh fruits. Presently chemicals such as citrashine orthophenilphenol thiabendazole are used. […] Microbial and fungal growth is inhibited while the food components are unaffected. The preservative of the present invention has less likelihood of toxicity or untoward reactions if ingested that the present, complex chemical antifungals. The preferred concentration of picolinic acid or acceptable derivative for this use is approximately 1% to approximately 99%.

transformed cells = settings: cited from earlier work
LD-50 = settings: in vivo
human papilloma viruses = experiment: Treatment of patients with papilloma virus skin lesions (common warts); type: in vivo
Procedure: Five patients ranging in age from 11 years to 52 years and each having at least one common wart induced by human papilloma viruses was treated with a topical preparation of picolinic acid. The topical preparation was either solution of 10% to 20% picolinic acid in deionized water or a topical ointment wherein 10% picolinic acid is incorporated into Aquaphor, i.e.1 g of picolinic acid in 10 g of Aquaphor.

LoVo cells = experiment: Effects of picolinic acid on growth (total cell protein); type: cell-based
Procedure: as §1

WI-38 cells = experiment: as above; type: cell-based
Procedure: as §1

[2] = system: metastatic breast cancer lesions; experiment: Treatment of metastatic disease to the skull from breast cancer; type: in vivo, human; settings: topical 10% picolinic acid in Aquaphor, changed twice daily
Procedure: A person with metastatic breast cancer to the skin and bone of the skull was treated with a topical preparation of 10% picolinic acid in Aquaphor. The preparation was applied to the cancerous lesions and to a bandage and changed twice daily. The multiple cancer lesions were approximately 1 to 1.5 cm in diameter.

recombinant MPS-1 = recombinant MPS-1 (Homo sapiens, UniProt P42677); experiment: Zinc dependent binding of MPS-1 to DNA, gel shift assays and 65Zn; type: biochemical
Text: MPS-1 is a ubiquitous tumor marker and cell growth stimulator and is described in detail in the inventor's U.S. Pat. No. Re.35,585 (No. 5,243,041). MPS-1 has one zinc finger domain of the type CCCC. […] This is detected by a change in the electrophoretic mobility of MPS-1 under non-denaturing conditions. These experiments indicate that picolinic acid and derivatives should remove zinc and denature various types of zinc finger or zinc ring proteins, whether known or heretofore undiscovered, including viral proteins such as nucleocapsid p7 proteins, as will be explained further. Furthermore, the inventor has determined that any chemical compound, whether known or heretofore undiscovered, that will remove the zinc (or other metal) and denature the proteins or that will form a ternary complex (protein-zinc-chelator) can be effective as a therapeutic agent or as an autologous immune response modulator, as will be discussed in greater detail below.

metastatic cancer = experiment: Systemic administration in metastatic cancer; type: in vivo; settings: 00 gelatin capsules at 500 mg per capsule
Text: A systemic preparation of a picolinic acid, its derivatives or analogs containing approximately 1% to 100% active ingredient may be administered orally, intravenously or by any acceptable route for the treatment of cancer and systemic infections. […] The preparation can be provided as a flavored oral solution. Likewise, an injectable form may be prepared.

[3] = system: papilloma virus ulcerative lesion; experiment: Treatment of ulcerative lesion with topical picolinic acid; type: in vivo, horse
Procedure: The lesion was progressive, with total loss of hair over the area. The diagnosis was viral disease, i.e. papilloma virus, complicated by fungal infection. The horse was treated with conventional local antibiotic and chemical therapies for about four months.
An aqueous solution of 10% picolinic acid in deionized water was applied every other day with a cotton swab over and around the lesion. The treatment continued for 45 days. The course of the regression of the viral lesion was as follows: […]

[4] = Stability experiments as preservative in foods and on fresh fruits; type: physicochemical; settings: in foods and on the surface of fresh fruits
Text: as §2

psoriasis = experiment: Treatment of proliferative skin disorders; type: in vivo, human; settings: topical, preliminary information
Text: Several patients suffering from proliferative skin disorders such as psoriasis have been included in a recent ongoing study of the anti-proliferative effects of topical picolinic acid. […] The patients may be treated with a topical application of approximately 5% to 20% picolinic acid, or a derivative thereof, in an absorption base. Alternatively, the patient may be treated with a solution containing approximately 5% to 20% picolinic acid, or derivative, in deionized water. The topical preparation may be applied twice a day or in an alternative pharmacologically acceptable regimen.

normal cells = settings: cited from earlier work

Text for actinic lesions: Two patients with actinic lesions (average of 5 lesions per patient, each lesion being approximately 3 mm to 5 mm in diameter) were diagnosed as requiring liquid nitrogen removal of the lesions. The patients received a daily application of 10% picolinic acid in Aquaphor.

In the case of `O=C(O)c1ccccn1` [picolinic acid, 2-Pyridine carboxylic acid], the ulcer appearance (recurrent plantar wart; 10% solution in deionized water for one week) is listed as “Central necrosis was noted”, the ulcer outcome (recurrent plantar wart; then 10% in Aquaphor with patch, after an additional three weeks) is listed as “resolved” and the “incorporation of iron into the cells” value (iron in the cells) is listed as “inhibits”. The “removal of radioiron from the cells” value (iron in the cells) was “effectively removes”, the “cytotoxic effects relative to LoVo cells” value (KB cells) was “not as pronounced as in the case of LoVo cells” and the “growth and cytotoxicity compared with LoVo results” value (KB cells) was “Equivalent results were obtained”. The “Microbial and fungal growth” value [1] was “inhibited”, the cytotoxicity (transformed cells) was “cytotoxicity and cell death was observed” and the cell cycle arrest (transformed cells; short-term treatment) was “blocked in different phases of the cell cycle”. For the same compound, the LD-50 (LD-50) was 140 grams/70 Kg, the “resolution with ointment versus solution” value (human papilloma viruses; 10% picolinic acid in Aquaphor) was “faster resolution” and the wart appearance (human papilloma viruses; topical 10-20% solution or 10% Aquaphor ointment, after seven days) was “central necrosis of the wart occurred”. The “course of disease, 10% versus 20% solutions” value (human papilloma viruses; topical solution in deionized water) was “no significant difference”, the lesion outcome (actinic lesions; daily 10% picolinic acid in Aquaphor, approximately three weeks, two patients) was “completely cured” and the “effects on normal skin” value (actinic lesions; in vivo) was “without any effects on normal skin”. The “growth of LoVo cells” value (LoVo cells; 3 mM picolinic acid, FIG. 2) was “inhibited”, the cytotoxicity (LoVo cells; 3 mM, longer exposure 48-72 hours) was “cytotoxicity and cell death was observed” and the “growth of normal WI-38 cells” value (WI-38 cells; 3 mM picolinic acid, within 24 hours) was “inhibited”. The toxic effects (WI-38 cells; 3 mM, up to 72 hours of treatment) was “no toxic effects”, the “time until lesions resolved with scar tissue” value [2] was “approximately 35 days” and the “removal of radioactive 65Zn from MPS-1” value (recombinant MPS-1; CCCC zinc finger, electrophoretic mobility, non-denaturing conditions) was “remove radioactive ^65Zn from MPS-1”. The “zinc dependent binding of recombinant MPS-1 to DNA” value (recombinant MPS-1; gel shift assays) was “inhibit”, the “control of metastatic cancer” value (metastatic cancer) was “effective” and the lesion appearance ([3]; 10% aqueous solution topical every other day, after 10 days) was “central necrosis”. For the same compound, the “diameter of the lesion” value ([3]; 10% aqueous solution topical, after 20 days, 3 inch at start) was “approximately 2 inches”, the “diameter of the lesion” value ([3]; 10% aqueous solution topical, after 30 days) was “about 1 inch” and the lesion outcome ([3]; 10% aqueous solution topical, at 45 days) was “resolved with some scar tissue”. The recurrence ([3]; after three additional months) was “without evidence of recurring disease”, the stability as preservative [4] was “highly stable” and the regression of psoriasis (psoriasis) was “significant effect in inducing regression”. For the same compound, the toxic effects (normal cells; longer exposure, most normal cells) was “no toxic effects” and the cell cycle arrest (normal cells; short-term treatment) was “arrests normal cells in G1, (Go)”.
